In general, EC50 refers to the concentration giving half of the maximal effect. By IC50 is commonly meant the concentration at which inhibition is half-maximal.

Molecules are shown by their SMILES. “And” between values parts separate entries of the source, which are not always exact repeats. Identical values can stand only once. The source made the active and inactive calls.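 Rule for the calls: active = compounds giving half or more protection of infected cells from virus-caused growth loss, again on retest; inactive = the rest.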 Where a SMILES comes first, the peptide text is derived from it. Some results are limits rather than exact numbers.

This assay deals with CEM cells HIV-1 protection, formazan growth assay. In words: NCI AIDS Antiviral Assay. The conditions noted are these: for IC50: measured here: growth of uninfected CEM cells. The method in brief: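 Steps: treat uninfected and HIV-1-infected human CEM cells at five drug levels; quantify growth by soluble formazan; retest any compound reaching 50% protection; classify actives from the retest.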

Regarding `O=C(O)C1[S][Bi]([S]C(C(=O)O)C([S][Bi]2[S]C(C(=O)O)C(C(=O)O)[S]2)C(=O)O)[S]C1C(=O)O` (stereo unspecified), the EC50 is above 1.32 µM and the IC50 was above 1.32 µM.
On to `O=C1OC(CCCN2CCCCC2)(c2ccccc2)CC12CCCC2` (stereo unspecified), for which the EC50 is above 200 µM and the IC50 came to 191 µM.
With `O=C(Nc1cc2c(oc1=O)CCC2)c1cnccn1`, the EC50 was above 100 µM and the IC50 was above 100 µM.
Consider `O=c1cc(N2CCCC2)[nH]c(=O)n1-c1ccccc1`, for which the EC50 was above 200 µM and the IC50 was above 200 µM.
`C[C@@H]1C(=O)c2c(O)cc3c(c2O[C@@H]1C)CCC(C)(C)O3`: the EC50 is above 200 µM and the IC50 worked out at 47.9 µM.
As to `C/C=C/C=C\C=C/C(O)CC(OP(=O)(O)O)C(C)(O)/C=C/C1CC=CC(=O)O1` (stereo unspecified), the EC50 is above 575 µM and the IC50 amounted to 33.1 µM.
As to `O=S(=O)(O)C(O)C(O)S(=O)(=O)O` (stereo unspecified), the EC50 is above 200 µM and the IC50 amounted to 79.4 µM.
As for `COC(=O)[C@@H]1[C@H](O)[C@H](C)[C@H](O)[C@@](C)(O)/C=C\C=C(C)C(=O)Nc2c(C)c(OC(C)=O)c3c(c2O)C(=O)C(C)=C2OCOC(=C23)C(C)=C[C@@](C)(O)[C@H](O)[C@@H](C)[C@H]1OC(C)=O`, the EC50 is above 302 µM; the IC50 was 17 µM and > 43.7 µM.
Regarding `Cc1nn(C)c2nc(=O)n(C)c(=O)c-2[n+]1[O-]`, the EC50 is above 200 µM and the IC50 was 26.9 µM.
In the same order, the values of `COC(=O)NCC(OCc1cc2c(cc1I)OCO2)C1=CCCCC1` (stereo unspecified) are above 29.5 µM and above 29.5 µM.
With `COC(=O)c1c2c(cc3c1CC1(C3)Cc3ccc4c(c3C1=O)CCC4)CCC2` (stereo unspecified), the EC50 was above 200 µM and the IC50 is 4.17 µM.
As for `O=C(O)c1cc(/C=C/c2cc(O)ccc2O)ccc1O`, the EC50 was above 182 µM and the IC50 was determined as 15.5 µM.
On to `COC(=O)/C=C(/CNC(=O)OCc1ccccc1)c1ccccc1`, for which the outcome was inactive.
Turning to `CC(=O)C(C(=O)C(=O)Nc1cc(Cl)c(Cl)cc1Cl)c1csc(N)n1` (stereo unspecified), the EC50 is above 229 µM and the IC50 was above 229 µM.
For the compound `NC1CC(=O)c2c(Cl)sc(Cl)c21` (stereo unspecified), the EC50 was above 200 µM and the IC50 worked out at 3.47 µM.
For `O=S(Cc1ccccc1)c1nc2ccccc2nc1-c1cccs1` (stereo unspecified), the EC50 was above 74.1 µM and the IC50 worked out at 13.5 µM.
Take `O=C1C2[C@@H](C(=O)N1c1ccc(Br)cc1)C13C(=CC2([N+](=O)[O-])[C@@H]2C(=O)N(c4ccc(Br)cc4)C(=O)[C@@H]21)c1ccccc1N3c1ccccc1` (stereo partly specified): the EC50 was above 6.76 µM and the IC50 is above 6.76 µM.
Take `C[C@@H]1CCC(=O)C(C(=O)CC2CC(=O)NC2=O)C1` (stereo partly specified): the EC50 is above 200 µM and the IC50 was above 200 µM.
On to `C=C(COC(=O)CC1(CC(=O)O)CCCC1)[C@@H]1CC[C@]2(COC(=O)CC3(CC(=O)O)CCCC3)CC[C@]3(C)[C@H](CC[C@@H]4[C@@]5(C)CC[C@H](OC(=O)CC6(CC(=O)O)CCCC6)C(C)(C)[C@@H]5CC[C@]43C)[C@@H]12`, for which the EC50 was above 200 µM and the IC50 amounted to 8.71 µM.
On the same counts, the results for `CC(C)c1ccc(C(=O)c2ccccc2C(=O)O)cc1` are above 200 µM and above 200 µM.
`CCNCCNC(=O)c1ccc(Br)cc1`: the outcome was inactive.
Take `O=C(Nc1nccs1)c1c(O)nc2sccn2c1=O`: the EC50 was above 200 µM and the IC50 was above 200 µM.
As to `O=c1c2ccccc2c(=O)n2n1-c1cccc(c1)CSSCc1cccc-2c1`, the result was inactive.
Same read-out and setting: then `O=C1NC(=O)C2C1c1[nH]c3ccccc3c1C1CCCC12` (stereo unspecified), with “inactive”.
On to `CC(C)=CCC[C@@H](C)C1[C@@H](OC2OC(CO)C(O)C(O)C2O)CC2(C)[C@@H]3CC(=O)C4C(C)(C)[C@@H](OC5OC(CO)C(O)C(O)C5O)CC[C@@]45C[C@@]35CC[C@]12C` (stereo partly specified), for which the EC50 is above 33.1 µM and the IC50 came to 31.6 µM.
On to `NNC(=O)C(O)C(O)C(=O)NN` (stereo unspecified), for which the EC50 was above 1410 µM and the IC50 came out at 631 µM.
With `COc1ccc(C(Cc2ccccc2)C2NC(=S)NC2=O)cc1` (stereo unspecified), the EC50 is above 200 µM and the IC50 was 58.9 µM.
Take `COC(=O)c1c2c(cc3c1CC1(Cc4cc5c(cc4C1)CCCC5)C3)CCCC2`: the EC50 is above 200 µM and the IC50 was above 200 µM.
Take `CC1C=C(OC(=O)c2ccccc2)C(=O)C(n2cc(F)c(=O)[nH]c2=O)O1` (stereo unspecified): the outcome was inactive.
In the case of `O=S(=O)(O)c1cccc2c(N=Nc3ccc(N=Nc4ccc(Nc5ccccc5)c5c(S(=O)(=O)O)cccc45)c4ccccc34)cccc12`, the EC50 is above 50.1 µM and the IC50 is 34.7 µM.
Consider `COc1cccc(/C=N/NC(=O)c2ccccc2[O-])c1[O-].[OH3+].[Pd+2]`, for which the EC50 was above 200 µM and the IC50 was 1.26 µM.
In the same order, the values of `CCN(CC)C(=S)SS(=O)(=O)c1ccc(F)cc1` are above 200 µM and 18.6 µM.
In the case of `CCCc1cc(=O)oc2c3c(cc(OS(=O)(=O)c4ccc(C)cc4)c12)O[C@H](C)[C@H](C)C3=O`, the EC50 was above 151 µM and the IC50 stood at 95.5 µM.
For `Cn1nc(-c2ccc(Cl)c(Cl)c2)[n+]([O-])c2c(=O)n(C)c(=O)nc1-2`, the EC50 was above 200 µM and the IC50 turned out to be 1.38 µM.
In the same order, the values of `CCOC1=NC(C(F)(F)F)(C(F)(F)F)N=C(N2CCCCC2)O1` are above 200 µM and 97.7 µM.
As for `ONC1=Nc2ccccc2OCc2cc(Br)c(Br)cc2COc2ccccc2N=C1NO`, the EC50 is above 200 µM and the IC50 is 10 µM.
In the case of `COC(=O)c1cc2ccc(O)c(O)c2cn1`, the EC50 is above 195 µM; the IC50 is 2.24 µM and 2.34 µM.
As to `O=C1NC(=O)C2(CCN(Cc3ccccc3)CC2)N1c1ccccc1`, the EC50 was above 200 µM and the IC50 was above 200 µM.
Turning to `COc1cc2c(c(OC)c1O)-c1ccc(OC)c(=O)cc1[C@@H](NC(=O)C(F)(F)F)CC2`, the EC50 was above 2 µM and the IC50 is 0.0363 µM.
In the same order, the values of `N#CCCN(C(=O)Nc1ccccc1)[C@H]1CCCC[C@@H]1N(C(=O)Nc1ccccc1)c1ccccc1` are above 200 µM and 33.1 µM.
For the compound `NS(=O)(=O)c1cc(=O)[nH]c(=O)[nH]1`, the EC50 is above 457 µM and the IC50 was found to be 251 µM.
Take `Nc1ccc2ncc(Nc3ccc(Cl)c(Cl)c3)nc2c1`: the EC50 was above 8.91 µM and the IC50 is above 8.91 µM.
On to `O=C(O)c1cccc2cccc(-c3c4ccc(=O)cc-4oc4cc(O)ccc34)c12`, for which the EC50 is 14.1 µM and the IC50 came out at 123 µM.
As for `COC(=O)[C@@H]1CCCCC[C@H]2C(CO)=C(C)C(=O)C12` (stereo partly specified), the EC50 is above 200 µM and the 50% inhibitory concentration (IC50) is above 200 µM.
Turning to `Cc1nc2[nH]ncn2c(=O)c1CCO`, the EC50 was above 200 µM and the IC50 was above 200 µM.
With `CC(=O)O[C@H]1CC[C@@]2(C)C(=CC[C@@H]3C2CC[C@]2(C)Nc4nc5ccccc5cc4CC32)C1` (stereo partly specified), the outcome was inactive.
Consider `CC(C)/C(Cl)=N/OC(=O)Nc1ccc(Br)cc1`, for which the EC50 is above 20 µM and the IC50 was found to be 3.72 µM.
Regarding `CCCCC(C=O)(C=C=C(C)C)CC` (stereo unspecified), the EC50 was above 339 µM and the IC50 worked out at 34.7 µM.
Consider `COc1ccc(-c2c(C)oc(=O)c(NC(=O)c3ccccc3)c2C)cc1`, for which the EC50 is above 200 µM and the IC50 came out at 57.5 µM.
In the case of `S=C(NC1CCCCC1)SSSC(=S)NC1CCCCC1`, the EC50 was above 200 µM and the IC50 was 27.5 µM.
As to `CCOC(=O)C1(C#N)C(C#N)(C#N)C1(CC)CC` (stereo unspecified), the EC50 is above 200 µM and the IC50 stood at 66.1 µM.
Take `CCC(C)C(NC(=O)C(CCCN=C(N)N)NC(=O)C(CC(N)=O)NC(=O)C(Cc1cnc[nH]1)NC(=O)C(N)CC(C)C)C(=O)NC(C(=O)NC(CC(C)C)C(=O)NCC(=O)NC(CC(N)=O)C(=O)O)C(C)CC` (stereo unspecified) (H-LHNRIILGN-OH; configuration not given here): the EC50 was above 47.9 µM and the IC50 was above 47.9 µM.
As to `CCCCOCC(=O)C1CC[C@@H]2[C@H](CC[C@]3(C)[C@@H](O)CC[C@@H]23)[C@H]1C(=O)O` (stereo partly specified), the EC50 is above 50.1 µM and the IC50 is above 50.1 µM.
Consider `CC1CCN(CCC(=O)CC(c2ccccc2)c2c(O)c3ccccc3oc2=O)CC1` (stereo unspecified), for which the EC50 was above 97.7 µM and the IC50 came to 57.5 µM.
In the case of `COC12C=CC(CC1)c1c2c(O)c2nc(C)c(C)nc2c1O` (stereo unspecified), the EC50 is above 200 µM and the IC50 stood at 3.16 µM.
On to `c1ccc2c(c1)C1CCC2c2ccccc21`, for which the EC50 was above 200 µM and the IC50 is above 200 µM.
In the case of `Cc1ccc(C)c(N2C(=O)C(=O)C(c3nc4ccccc4o3)/C(=N\NC(=O)c3ccccc3O)C2=O)c1` (stereo unspecified), the outcome was inactive.
Take `COc1ccc(C(=O)C[P+](c2ccccc2)(c2ccccc2)c2ccccc2)cc1`: the EC50 is above 200 µM and the IC50 amounted to 33.9 µM.
Take `Nc1nc(Cl)nc(NCc2ccccc2)n1`: the EC50 is above 200 µM and the IC50 is above 200 µM.
Consider `C/C=C/C=Nc1c(C#N)c2n(c1C(=O)Nc1ccccc1)CCCC2`, for which the EC50 was above 50.1 µM and the IC50 was above 50.1 µM.
As for `N=S(c1ccccc1[N+](=O)[O-])c1ccccc1[N+](=O)[O-]`, the EC50 is above 200 µM; the IC50 was 0.631 µM and 0.589 µM.
Turning to `O[C@@H]1CCC[C@@H]2NC[C@@H](c3ccc4c(c3)OCO4)[C@H]12`, the EC50 is above 200 µM and the IC50 is above 200 µM.
In the case of `O=C(NCc1cccc(C(F)(F)F)c1)c1cc2sccc2nc1C(F)(F)F`, the EC50 was above 200 µM and the IC50 was above 200 µM.
Turning to `CC1=C(C)C(=O)C(C2=C(C3=CC(=O)C(C)=C(C)C3=O)C(=O)c3ccccc3C2=O)=CC1=O`, the EC50 is above 200 µM and the IC50 amounted to 5.62 µM.
On the same counts, the results for `CCS/C(SC)=C(/c1ccccc1)[P+](c1ccccc1)(c1ccccc1)c1ccccc1` are above 20 µM and 0.355 µM.
As for `CN(C)CCNC(=O)c1cc(NC(=O)c2cc(NC(=O)CC/C=C3/[C@@H]4CC[C@H]3N=N4)cn2C)cn1C`, the EC50 is above 200 µM and the IC50 is above 200 µM.
As to `CP1(=S)CCC2=C1c1ccc(O)cc1CC2` (stereo unspecified), the outcome was inactive.

The values above are taken from PubChem BioAssay AID179 (DTP/NCI, 2004).
